Test results as given in US12258328B2, “6-membered heteroaryl-containing aminopyridine compounds as EGFR inhibitors” (YUHAN CORPORATION, priority 2021, dated 2025).
Read-outs that look alike come from different tables or passages of the source.

What was measured:
EGFR wildtype = EGFR wildtype (Homo sapiens, UniProt P00533); assay: Biochemical EGFR kinase assay (Lance Ultra TR-FRET), wildtype
Method in brief: (§1)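 Step 1: compound in kinase buffer, 0.003–10 μM. Step 2: kinase reaction 1 h at room temperature. Step 4: TR-FRET read at 615/665 nm; IC50 calculated.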

EGFR L858R/C797S = EGFR L858R/C797S (Homo sapiens, UniProt P00533, C797S/L858R); assay: Biochemical EGFR kinase assay (Lance Ultra TR-FRET), double mutant L858R/C797S
Method in brief: as §1

EGFR del19/T790M/C797S = EGFR del19/T790M/C797S (Homo sapiens, UniProt P00533, C797S/DEL746-750/T790M); assay: Biochemical EGFR kinase assay (Lance Ultra TR-FRET), triple mutant del19/T790M/C797S
Chain of EGFR del19/T790M/C797S (P00533 with tags, fused parts or gaps DEL746-750/T790M/C797S): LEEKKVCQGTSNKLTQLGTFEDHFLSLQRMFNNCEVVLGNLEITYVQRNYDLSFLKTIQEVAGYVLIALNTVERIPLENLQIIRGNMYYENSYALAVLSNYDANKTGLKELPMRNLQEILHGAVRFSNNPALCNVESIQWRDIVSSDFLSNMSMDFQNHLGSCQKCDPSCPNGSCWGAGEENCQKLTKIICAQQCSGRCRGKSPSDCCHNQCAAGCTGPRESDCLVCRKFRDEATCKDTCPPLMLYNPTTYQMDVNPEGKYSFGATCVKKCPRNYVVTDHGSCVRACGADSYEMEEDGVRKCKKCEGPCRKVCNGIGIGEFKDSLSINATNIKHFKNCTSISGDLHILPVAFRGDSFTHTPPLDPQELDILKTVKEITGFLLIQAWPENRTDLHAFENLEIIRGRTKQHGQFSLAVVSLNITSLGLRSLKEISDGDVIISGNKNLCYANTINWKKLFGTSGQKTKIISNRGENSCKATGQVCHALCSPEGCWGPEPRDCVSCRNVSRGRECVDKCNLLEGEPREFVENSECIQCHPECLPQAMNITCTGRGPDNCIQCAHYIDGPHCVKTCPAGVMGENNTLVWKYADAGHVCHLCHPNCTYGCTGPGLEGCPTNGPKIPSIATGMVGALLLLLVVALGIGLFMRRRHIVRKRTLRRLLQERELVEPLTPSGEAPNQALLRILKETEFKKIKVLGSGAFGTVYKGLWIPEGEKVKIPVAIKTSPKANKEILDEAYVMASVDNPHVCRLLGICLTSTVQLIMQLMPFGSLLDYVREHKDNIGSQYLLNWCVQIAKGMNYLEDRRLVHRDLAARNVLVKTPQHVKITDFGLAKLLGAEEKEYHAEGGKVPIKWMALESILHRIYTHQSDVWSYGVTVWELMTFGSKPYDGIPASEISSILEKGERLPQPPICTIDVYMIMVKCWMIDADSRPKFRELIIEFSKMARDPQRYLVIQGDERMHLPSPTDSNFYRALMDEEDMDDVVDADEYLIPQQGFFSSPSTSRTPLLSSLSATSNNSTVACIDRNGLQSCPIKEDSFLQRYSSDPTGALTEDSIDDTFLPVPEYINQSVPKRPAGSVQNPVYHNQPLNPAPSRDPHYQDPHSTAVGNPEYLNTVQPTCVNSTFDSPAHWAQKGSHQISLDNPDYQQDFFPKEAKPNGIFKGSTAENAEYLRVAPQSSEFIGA
Method in brief: as §1

EGFR L858R/T790M/C797S = EGFR L858R/T790M/C797S (Homo sapiens, UniProt P00533, C797S/L858R/T790M); assay: Biochemical EGFR kinase assay (Lance Ultra TR-FRET), triple mutant L858R/T790M/C797S
Chain of EGFR L858R/T790M/C797S (P00533 25-1210 T790M/C797S/L858R): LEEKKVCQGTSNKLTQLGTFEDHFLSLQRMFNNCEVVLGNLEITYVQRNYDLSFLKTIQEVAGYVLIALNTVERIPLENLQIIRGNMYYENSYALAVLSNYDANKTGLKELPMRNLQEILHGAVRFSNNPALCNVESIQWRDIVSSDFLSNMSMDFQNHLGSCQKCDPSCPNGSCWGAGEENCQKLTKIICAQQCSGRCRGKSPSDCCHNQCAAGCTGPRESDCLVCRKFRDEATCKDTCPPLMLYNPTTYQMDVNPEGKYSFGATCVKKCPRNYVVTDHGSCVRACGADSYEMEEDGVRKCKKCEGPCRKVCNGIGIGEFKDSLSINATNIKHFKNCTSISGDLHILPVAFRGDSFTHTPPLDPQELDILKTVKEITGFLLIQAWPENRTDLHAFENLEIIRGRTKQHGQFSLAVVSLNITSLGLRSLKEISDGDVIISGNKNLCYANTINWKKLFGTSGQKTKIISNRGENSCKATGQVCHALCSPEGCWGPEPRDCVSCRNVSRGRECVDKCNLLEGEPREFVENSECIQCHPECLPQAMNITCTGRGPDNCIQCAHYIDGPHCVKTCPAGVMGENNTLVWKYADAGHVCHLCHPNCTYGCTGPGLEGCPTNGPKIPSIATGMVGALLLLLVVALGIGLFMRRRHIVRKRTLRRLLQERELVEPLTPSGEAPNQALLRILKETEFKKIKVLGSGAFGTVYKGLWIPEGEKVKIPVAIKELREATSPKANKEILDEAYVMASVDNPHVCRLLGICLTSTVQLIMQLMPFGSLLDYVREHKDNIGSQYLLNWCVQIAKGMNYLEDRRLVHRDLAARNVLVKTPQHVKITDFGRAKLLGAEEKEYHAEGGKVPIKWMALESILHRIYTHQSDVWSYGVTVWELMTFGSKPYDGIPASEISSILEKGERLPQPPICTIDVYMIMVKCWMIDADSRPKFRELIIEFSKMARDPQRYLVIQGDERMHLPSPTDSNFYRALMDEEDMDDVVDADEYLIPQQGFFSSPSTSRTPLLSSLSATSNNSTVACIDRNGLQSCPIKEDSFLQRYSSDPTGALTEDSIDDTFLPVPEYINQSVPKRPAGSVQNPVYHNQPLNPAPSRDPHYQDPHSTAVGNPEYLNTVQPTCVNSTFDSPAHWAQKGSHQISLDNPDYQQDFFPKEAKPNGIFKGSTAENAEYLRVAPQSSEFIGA
Method in brief: as §1

EGFR del19/C797S = EGFR del19/C797S (Homo sapiens, UniProt P00533, C797S/DEL746-750); assay: Biochemical EGFR kinase assay (Lance Ultra TR-FRET), double mutant del19/C797S
Chain of EGFR del19/C797S (P00533 with tags, fused parts or gaps DEL746-750/C797S): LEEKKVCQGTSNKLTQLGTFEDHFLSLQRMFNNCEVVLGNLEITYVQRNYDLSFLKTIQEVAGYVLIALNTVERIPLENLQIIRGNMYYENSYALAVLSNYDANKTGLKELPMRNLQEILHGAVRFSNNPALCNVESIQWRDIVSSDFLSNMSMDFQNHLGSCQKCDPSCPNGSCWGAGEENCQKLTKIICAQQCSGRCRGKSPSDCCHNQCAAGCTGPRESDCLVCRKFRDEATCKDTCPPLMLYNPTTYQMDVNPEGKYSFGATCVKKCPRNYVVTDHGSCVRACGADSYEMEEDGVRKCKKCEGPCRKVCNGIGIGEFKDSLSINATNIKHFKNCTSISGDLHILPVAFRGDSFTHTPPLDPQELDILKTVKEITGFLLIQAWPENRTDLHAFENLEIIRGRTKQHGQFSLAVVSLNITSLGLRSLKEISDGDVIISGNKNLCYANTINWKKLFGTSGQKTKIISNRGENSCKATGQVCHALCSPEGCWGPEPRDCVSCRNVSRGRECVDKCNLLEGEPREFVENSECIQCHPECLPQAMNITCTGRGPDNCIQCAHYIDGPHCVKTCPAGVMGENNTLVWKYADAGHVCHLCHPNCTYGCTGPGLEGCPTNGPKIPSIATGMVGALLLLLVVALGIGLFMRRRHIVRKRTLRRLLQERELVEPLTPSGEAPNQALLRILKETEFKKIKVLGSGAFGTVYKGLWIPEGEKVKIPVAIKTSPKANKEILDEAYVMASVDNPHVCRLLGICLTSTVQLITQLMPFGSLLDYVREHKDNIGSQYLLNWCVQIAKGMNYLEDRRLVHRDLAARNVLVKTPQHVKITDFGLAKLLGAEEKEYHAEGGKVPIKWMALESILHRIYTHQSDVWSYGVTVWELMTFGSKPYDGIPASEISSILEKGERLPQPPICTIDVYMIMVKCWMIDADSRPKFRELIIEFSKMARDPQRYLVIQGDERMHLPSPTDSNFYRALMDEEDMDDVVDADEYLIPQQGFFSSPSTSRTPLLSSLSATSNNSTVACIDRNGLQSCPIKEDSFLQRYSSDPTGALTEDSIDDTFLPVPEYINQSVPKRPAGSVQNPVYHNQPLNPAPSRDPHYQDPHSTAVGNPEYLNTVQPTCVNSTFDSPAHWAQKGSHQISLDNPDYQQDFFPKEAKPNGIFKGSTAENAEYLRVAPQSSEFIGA
Method in brief: as §1

[1] = ATP at Km, read-out: IC50 WT, Km ATP
[2] = ATP at Km, read-out: IC50 L858R/C797S, Km ATP
[3] = ATP at Km, read-out: IC50 del19/T790M/C797S, Km ATP
[4] = ATP at Km, read-out: IC50 L858R/T790M/C797S, Km ATP
[5] = ATP at Km, read-out: IC50 del19/C797S, Km ATP
[6] = IC50 del19/T790M/C797S, 100 μM ATP
[7] = IC50 L858R/T790M/C797S, 100 μM ATP

Chain of EGFR wildtype (P00533 25-1210): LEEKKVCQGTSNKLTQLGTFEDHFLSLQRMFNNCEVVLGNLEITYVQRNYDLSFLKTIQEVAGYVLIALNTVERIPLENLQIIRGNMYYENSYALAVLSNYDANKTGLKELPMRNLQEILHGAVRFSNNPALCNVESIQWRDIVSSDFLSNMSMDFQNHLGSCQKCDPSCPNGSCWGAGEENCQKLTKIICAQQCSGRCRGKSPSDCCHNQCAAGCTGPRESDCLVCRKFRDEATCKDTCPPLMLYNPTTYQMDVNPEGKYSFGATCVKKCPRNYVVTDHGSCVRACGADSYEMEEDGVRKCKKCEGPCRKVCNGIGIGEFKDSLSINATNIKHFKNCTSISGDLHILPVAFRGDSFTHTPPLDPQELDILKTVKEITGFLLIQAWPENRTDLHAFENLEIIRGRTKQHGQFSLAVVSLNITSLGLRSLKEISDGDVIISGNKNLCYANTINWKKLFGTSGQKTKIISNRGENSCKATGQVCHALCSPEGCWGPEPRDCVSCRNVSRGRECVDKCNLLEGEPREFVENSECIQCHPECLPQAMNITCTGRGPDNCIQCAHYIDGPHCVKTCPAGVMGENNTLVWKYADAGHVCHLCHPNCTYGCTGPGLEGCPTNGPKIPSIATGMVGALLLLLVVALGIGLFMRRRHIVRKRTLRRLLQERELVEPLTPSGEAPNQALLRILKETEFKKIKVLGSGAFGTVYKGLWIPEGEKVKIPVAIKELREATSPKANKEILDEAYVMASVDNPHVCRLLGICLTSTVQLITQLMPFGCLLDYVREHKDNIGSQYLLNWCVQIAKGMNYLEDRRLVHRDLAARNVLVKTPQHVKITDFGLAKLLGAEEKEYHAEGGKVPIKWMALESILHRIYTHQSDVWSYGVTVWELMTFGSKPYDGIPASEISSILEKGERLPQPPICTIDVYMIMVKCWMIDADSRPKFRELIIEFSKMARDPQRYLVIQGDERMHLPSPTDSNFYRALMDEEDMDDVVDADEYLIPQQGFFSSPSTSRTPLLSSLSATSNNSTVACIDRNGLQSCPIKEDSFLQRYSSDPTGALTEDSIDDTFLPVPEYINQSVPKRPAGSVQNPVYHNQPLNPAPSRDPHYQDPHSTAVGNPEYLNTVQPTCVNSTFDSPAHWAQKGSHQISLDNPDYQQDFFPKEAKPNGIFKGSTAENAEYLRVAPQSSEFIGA

Row | SMILES | IC50 (EGFR wildtype; [1]) [nM] | IC50 (EGFR L858R/C797S; [2]) [nM] | IC50 (EGFR del19/T790M/C797S; [3]) [nM] | IC50 (EGFR L858R/T790M/C797S; [4]) [nM] | IC50 (EGFR del19/C797S; [5]) [nM] | IC50 (EGFR wildtype; IC50 WT, 100 μM ATP) [nM] | IC50 (EGFR L858R/C797S; IC50 L858R/C797S, 100 μM ATP) [nM] | IC50 (EGFR del19/T790M/C797S; [6]) [nM] | IC50 (EGFR L858R/T790M/C797S; [7]) [nM] | IC50 (EGFR del19/C797S; IC50 del19/C797S, 100 μM ATP) [nM]
1 | CN1CCC(Oc2ccc(-c3cnc(Nc4ccnc(-c5cnn(S(=O)(=O)C6CC6)c5)n4)cc3NC3CCC(F)(F)CC3)nc2)CC1 [Example 255, N^6′-(2-(1-(Cyclopropylsulfonyl)-1H-pyrazol-4-yl)pyrimidin-4-yl)-N^4′-(4,4-difluorocyclohexyl)-5-((1-methylpiperidin-4-yl)oxy)-[2,3′-bipyridine]-4′,6′-diamine] | 1.9 | 0.02 | 0.1 | 0.03 | 0.5 | – | – | – | – | –
2 | CN1CCC(Oc2ccc(-c3cnc(Nc4ccnc(-c5cnn(S(=O)(=O)C6CC6)c5)n4)cc3NC3CCN(CCF)CC3)nc2)CC1 [Example 256, N^6′-(2-(1-(Cyclopropylsulfonyl)-1H-pyrazol-4-yl)pyrimidin-4-yl)-N^4′-(1-(2-fluoroethyl)piperidin-4-yl)-5-((1-methylpiperidin-4-yl)oxy)-[2,3′-bipyridine]-4′,6′-diamine] | 61.6 | 0.6 | 0.1 | 0.1 | 3.8 | – | – | – | – | –
3 | CN1CCC(Oc2ccc(-c3cnc(Nc4ccnc(-c5cnn(S(=O)(=O)C6CC6)c5)n4)cc3NC3CCCN(CCF)C3)nc2)CC1 (centres unmarked) [Example 257, N^6′-(2-(1-(Cyclopropylsulfonyl)-1H-pyrazol-4-yl)pyrimidin-4-yl)-N^4′-(1-(2-fluoroethyl)piperidin-3-yl)-5-((1-methylpiperidin-4-yl)oxy)-[2,3′-bipyridine]-4′,6′-diamine] | 7.4 | 0.4 | 0.4 | 0.2 | 1 | – | – | – | – | –
4 | CN1CCC(Oc2ccc(-c3cnc(Nc4ccnc(-c5cnn(S(=O)(=O)C6CC6)c5)n4)cc3NC3CCN(CC(F)F)CC3)nc2)CC1 [Example 258, N^6′-(2-(1-(Cyclopropylsulfonyl)-1H-pyrazol-4-yl)pyrimidin-4-yl)-N^4′-(1-(2,2-difluoroethyl)piperidin-4-yl)-5-((1-methylpiperidin-4-yl)oxy)-[2,3′-bipyridine]-4′,6′-diamine] | 14.1 | 0.1 | 0.2 | 0.1 | 0.7 | – | – | – | – | –
5 | COC(c1ccc(-c2cnc(Nc3ccnc(-c4cnn(S(=O)(=O)C5CC5)c4)n3)cc2NC2CCC(C)(O)CC2)nc1)C(F)(F)F (centres unmarked) [Example 260, (1s,4s)-4-((6′-((2-(1-(Cyclopropylsulfonyl)-1H-pyrazol-4-yl)pyrimidin-4-yl)amino)-5-(2,2,2-trifluoro-1-methoxyethyl)-[2,3′-bipyridin]-4′-yl)amino)-1-methylcyclohexan-1-ol] | 7.8 | 8.8 | 6.9 | 4.1 | 10.7 | – | – | – | – | –
6 | COC(c1ccc(-c2cnc(Nc3ccnc(-c4cnn(S(=O)(=O)C5CC5)c4)n3)cc2NC2CCC(CO)CC2)nc1)C(F)(F)F (centres unmarked) [Example 261, ((1s,4s)-4-((6′-((2-(1-(Cyclopropylsulfonyl)-1H-pyrazol-4-yl)pyrimidin-4-yl)amino)-5-(2,2,2-trifluoro-1-methoxyethyl)-[2,3′-bipyridin]-4′-yl)amino)cyclohexyl)methanol] | 9.2 | 7.5 | 9.6 | 4.1 | 10.3 | – | – | – | – | –
7 | COC(c1ccc(-c2cnc(Nc3ccnc(-c4cnn(S(=O)(=O)C5CC5)c4)n3)cc2NC2CCC(CN(C)C)CC2)nc1)C(F)(F)F (centres unmarked) [Example 262, N^6′-(2-(1-(Cyclopropylsulfonyl)-1H-pyrazol-4-yl)pyrimidin-4-yl)-N^4′-((1s,4s)-4-((dimethylamino)methyl)cyclohexyl)-5-(2,2,2-trifluoro-1-methoxyethyl)-[2,3′-bipyridine]-4′,6′-diamine] | 2 | 0.9 | 1.9 | 0.5 | 1.9 | – | – | – | – | –
8 | CC(O)(c1ccc(-c2cnc(Nc3ccnc(-c4cnn(S(=O)(=O)C5CC5)c4)n3)cc2NC2CCC(F)CC2)nc1)C(F)(F)F (centres unmarked) [Example 266, 2-(6′-((2-(1-(Cyclopropylsulfonyl)-1H-pyrazol-4-yl)pyrimidin-4-yl)amino)-4′-((4-fluorocyclohexyl)amino)-[2,3′-bipyridin]-5-yl)-1,1,1-trifluoropropan-2-ol] | 168 | 39.6 | 33 | 18.6 | 12.5 | – | – | – | – | –
9 | CN1CCC(Oc2ccc(-c3cnc(Nc4ccnc(-c5cnn(S(=O)(=O)C6CC6)c5)n4)cc3N[C@H]3CC[C@@](C)(O)CC3)nn2)CC1 [Example 269, (1s,4s)-4-((2-((2-(1-(Cyclopropylsulfonyl)-1H-pyrazol-4-yl)pyrimidin-4-yl)amino)-5-(6-((1-methylpiperidin-4-yl)oxy)pyridazin-3-yl)pyridin-4-yl)amino)-1-methylcyclohexan-1-ol] | 2.6 | 0.1 | 0.1 | 0.1 | 0.4 | – | – | – | – | –
10 | C[C@]1(O)CC[C@@H](Nc2cc(Nc3ccnc(-c4cnn(S(=O)(=O)C5CC5)c4)n3)ncc2-c2cccc(F)n2)CC1 [Example 271, (1s,4s)-4-((6′-((2-(1-(Cyclopropylsulfonyl)-1H-pyrazol-4-yl)pyrimidin-4-yl)amino)-6-fluoro-[2,3′-bipyridin]-4′-yl)amino)-1-methylcyclohexan-1-ol] | 3.8 | 0.6 | 0.5 | 0.2 | 0.9 | > 10000 | 7.9 | 0.6 | 0.4 | 0.7

Further lines, results first:

Row | IC50 (EGFR wildtype; [1]) [nM] | IC50 (EGFR L858R/C797S; [2]) [nM] | IC50 (EGFR del19/T790M/C797S; [3]) [nM] | IC50 (EGFR L858R/T790M/C797S; [4]) [nM] | IC50 (EGFR del19/C797S; [5]) [nM] | IC50 (EGFR wildtype; IC50 WT, 100 μM ATP) [nM] | IC50 (EGFR L858R/C797S; IC50 L858R/C797S, 100 μM ATP) [nM] | IC50 (EGFR del19/T790M/C797S; [6]) [nM] | IC50 (EGFR L858R/T790M/C797S; [7]) [nM] | IC50 (EGFR del19/C797S; IC50 del19/C797S, 100 μM ATP) [nM] | SMILES
11 | 9 | 0.2 | 1 | 0.4 | 1.9 | – | – | – | – | – | CN1CCC(Oc2ccc(-c3cnc(Nc4ccnc(-c5cnn(S(=O)(=O)C6CC6)c5)n4)cc3NC3CCC(F)(CO)CC3)nc2)CC1 (centres unmarked) [Example 259, (4-((6′-((2-(1-(Cyclopropylsulfonyl)-1H-pyrazol-4-yl)pyrimidin-4-yl)amino)-5-((1-methylpiperidin-4-yl)oxy)-[2,3′-bipyridin]-4′-yl)amino)-1-fluorocyclohexyl)methanol]
12 | 14.1 | 0.9 | 8 | 3.4 | 23.1 | – | – | – | – | – | C[C@]1(O)CC[C@@H](Nc2cc(Nc3ccnc(-c4cnn(S(=O)(=O)C5CC5)c4)n3)ncc2-c2ccc(CCC(F)(F)F)cn2)CC1 [Example 263, (1s,4s)-4-((6′-((2-(1-(Cyclopropylsulfonyl)-1H-pyrazol-4-yl)pyrimidin-4-yl)amino)-5-(3,3,3-trifluoropropyl)-[2,3′-bipyridin]-4′-yl)amino)-1-methylcyclohexan-1-ol]
13 | 365 | 85.3 | 31 | 22 | 16.9 | – | – | – | – | – | CC(O)(c1ccc(-c2cnc(Nc3ccnc(-c4cnn(S(=O)(=O)C5CC5)c4)n3)cc2NC2CCC(F)CC2)nc1)C(F)(F)F (centres unmarked) [Example 265, 2-(6′-((2-(1-(Cyclopropylsulfonyl)-1H-pyrazol-4-yl)pyrimidin-4-yl)amino)-4′-(((1s,4s)-4-fluorocyclohexyl)amino)-[2,3′-bipyridin]-5-yl)-1,1,1-trifluoropropan-2-ol]
14 | 2910 | 357 | 15.4 | 21.7 | 82.1 | – | – | – | – | – | O=S(=O)(C1CC1)n1cc(-c2nccc(Nc3cc(NC4CCC(F)CC4)c(-c4ccc(N5CCC(F)(F)CC5)nn4)cn3)n2)cn1 (centres unmarked) [Example 267, N^2-(2-(1-(Cyclopropylsulfonyl)-1H-pyrazol-4-yl)pyrimidin-4-yl)-5-(6-(4,4-difluoropiperidin-1-yl)pyridazin-3-yl)-N^4-(4-fluorocyclohexyl)pyridine-2,4-diamine]
15 | 4770 | 1220 | 28.9 | 22.4 | 762 | – | – | – | – | – | O=S(=O)(C1CC1)n1cc(-c2nccc(Nc3cc(NC4CCC(F)(F)CC4)c(-c4ccc(N5CCC(F)(F)CC5)nn4)cn3)n2)cn1 [Example 268, N^2-(2-(1-(Cyclopropylsulfonyl)-1H-pyrazol-4-yl)pyrimidin-4-yl)-N^4-(4,4-difluorocyclohexyl)-5-(6-(4,4-difluoropiperidin-1-yl)pyridazin-3-yl)pyridine-2,4-diamine]
16 | 36 | 1.1 | 0.3 | 0.1 | 3.2 | – | – | – | – | – | CN1CCC(Oc2ccc(-c3cnc(Nc4ccnc(-c5cnn(S(=O)(=O)C6CC6)c5)n4)cc3N[C@H]3CC[C@@H](F)CC3)nn2)CC1 [Example 270, N^2-(2-(1-(Cyclopropylsulfonyl)-1H-pyrazol-4-yl)pyrimidin-4-yl)-N^4-((1s,4s)-4-fluorocyclohexyl)-5-(6-((1-methylpiperidin-4-yl)oxy)pyridazin-3-yl)pyridine-2,4-diamine]
17 | 1.4 | 1 | 0.3 | 0.1 | 0.6 | 495 | 2.5 | 0.5 | 0.3 | 0.7 | O=S(=O)(C1CC1)n1cc(-c2nccc(Nc3cc(N[C@H]4CC[C@@H](CO)CC4)c(-c4cccc(F)n4)cn3)n2)cn1 [Example 272, ((1s,4s)-4-((6′-((2-(1-(Cyclopropylsulfonyl)-1H-pyrazol-4-yl)pyrimidin-4-yl)amino)-6-fluoro-[2,3′-bipyridin]-4′-yl)amino)cyclohexyl)methanol]
